Counter-ions that a name gives are not always drawn.
Key:
rHSP90 = assay: HSP90 binding assay (BIACORE SPR; inhibition of binding between rHSP90 and fixed herbimycin A); details: concentration inhibiting binding between rHSP90 (50 μg/mL) and fixed herbimycin A by 50%, BIACORE-X SPR; read-out: HSP90 inhibitory activity IC50
From the text: The HSP90 binding assay system is a system for detecting the change of mass as SPR signal caused by the binding between herbimycin A fixed on a sensor chip and rHSP90 by BIACORE-X, in which 17-(6-amino hexylamino)herbimycin A is fixed through a carboxyl group on the surface of the sensor chip (CM5, BIACORE) on which carboxymethyldextran has been introduced. The method was according to the protocol of BIACORE. In addition, 17-(6-aminohexylamino)herbimycin A was synthesizes as described below.
rHSP90 (Stressgen Biotechnologies Corp., Victoria, BC Canada) at 50 μg/mL was exposed for 10 seconds to the surface of the sensor chip on which herbimycin A was fixed and the SPR signal (numerical value of interaction) was detected.
After mixing rHSP90 protein (5×10^−7M (50 μg/mL)) with the triazole derivative of the present invention, the mixture was exposed for 10 seconds to the surface of the sensor chip on which herbimycin A was fixed, and the SPR signal was measured by BIACORE-X.
Next, using following formula (1), the inhibitory activity (binding inhibition rate (%)) of the compound of the present invention to the binding between rHSP90 and fixed herbimycin A was obtained.
binding inhibition rate(%)=((b−s)/b)×100 Formula (1)
wherein b is the SPR signal when the compound of the present invention is not added to the sample: s is the SPR signal when the compound of the present invention is added to the sample.

[1] = tested on: Human breast cancer cells (MCF7); assay: Antiproliferative activity on MCF7 cells (methylene blue method); assay type: cell-based; details: Homo sapiens, MCF7, 72 h, MCF7 cells, 72 hours treatment, 660 nm absorbance after methylene blue staining; read-out: Antiproliferative activity IC50
Method: Human breast cancer cells (MCF7) were treated with samples of various concentrations of known HSP90 inhibitors (that is, geldanamycin, herbimycin, radicicol and PU3) and the compounds of the present invention for 72 hours to confirm the effect of the triazole derivatives of the present invention on the cell growth. The cell ratio after the drug treatment was evaluated by measuring 660 nm absorbance by a microplate reader (BioRad) after staining the cells with the methylene blue method.
Cells were distributed to wells of 96 well plates at 2000 cells per well and treated with drugs 24 hours later. Further, the medium was removed 72 hours later and the cells were fixed by adding 50 μl of methanol and standing at room temperature for 2 minutes. After removing methanol, 100 μl of a staining solution was added and stained for 30 minutes. After washing 3 times with 200 μl of distilled water, 3% HCl solution was added, and the 660 nm absorbance of methylene blue was measured by a microplate reader (BioRad).
Next, the antiproliferative activity rate (%) was obtained by the formula (2) below.
Antiproliferative activity rate(%)=((B−A)/B)×100 Formula (2)
wherein B is 660 nm absorbance of the sample when the compound of the present invention is not added, and A is 660 nm absorbance of the sample when the compound of the present invention is added.
From the concentration of the triazole derivative of the present invention and the antiproliferative activity rate, the concentration was obtained using the above formula, at which the cell growth was suppressed by 50% by comparing with the control, and termed an IC50 value.
The antiproliferative activity rate (%) was obtained for SH-b04, SH-b05 and SH-b06 described above by a similar manner to that of the triazole derivatives of the present invention.

[2] = tested on: HSP90 client protein Her2 in MCF7 cells; assay: Measurement test for amount of HSP90 client protein Her2 (Western blotting); assay type: cell-based; details: MCF7 cells treated 16 hours at 3-5 concentrations
Method: (§1) MCF7 cells (American Type Culture Collection, Rockville, Md.) were treated with the compounds of the present invention at various concentrations for 16 hours to confirm that the HSP90 inhibitors of the present invention induce a depression of intracellular concentration of the client protein or target polypeptide that bind to HSP90. The amount of the HSP90 client protein Her2 and ERα was evaluated by the Western blotting method.
(§2) One million cells were seeded in a 6 cm dish, and 24 hours later the compounds of the present invention (Example 1-2, Example 2-1, Example 2-13, Example 2-2, Example 3-4, Example 2-5, Example 3-16, Example 3-6, Example 2-7, Example 3-27, Example 2-10 and Example 3-18) were added. Cells treated with the compounds were washed, mixed with 150 μl of lysis buffer (RIPA, 150 mM NaCl, 1% NP40, 0.1% deoxycholate (sodium salt), 0.1% SDS, 1 mM EDTA, 10 mM Tris-HCl (pH 8.0)) and incubated at 4° C. for 30 minutes. The cell lysates were centrifuged (15,000 rpm, 20 minutes) and protein (20 μg) of the supernatant was subjected to SDS polyacrylamide gel electrophoresis (SDS-PAGE). After finishing the electrophoresis, proteins in the gel were transferred to a PVDF membrane. The membrane after the transfer was treated with a primary antibody against the HSP90 client protein (anti Her2 or anti ERa antibody, both from Santa Cruz Biotechnology, Santa Cruz, Calif.), then treated with secondary antibodies (anti-rabbit Ig, horse radish peroxidase conjugated F(ab′)2 fragment (derived from donkey): Amersham Biosciences, UK Limited, Buckinghamhshire, UK.) and then the amount of the client protein was detected as the intensity of chemiluminescence signal with a chemiluminescence reagent (ECL: Amersham Biosciences UK Limited, Buckinghamshire, UK).

[3] = tested on: HSP90 client protein ERα in MCF7 cells; assay: Measurement test for amount of HSP90 client protein ERα (Western blotting); assay type: cell-based; details: MCF7 cells treated 16 hours at 3-5 concentrations
Method: as §1, §2

Row | SMILES | IC50 (rHSP90) [nM] | IC50 [1] [nM] | amount of HSP90 client protein Her2 [2] | amount of HSP90 client protein ERα [3]
1 | CC(C)c1cc(-c2n[nH]c(=O)n2-c2ccc(O)cc2)c(O)cc1O [OH-a11, 5-(2,4-dihydroxy-5-isopropylphenyl)-4-(4-hydroxyphenyl)-4H-[1,2,4]triazol-3-one] | 220 | 77 | depression | depression
2 | COc1ccc(-n2c(NS(C)(=O)=O)nnc2-c2cc(C(C)C)c(O)cc2O)cc1 [Example N1-a08, N-[5-(2,4-dihydroxy-5-isopropyl-phenyl)-4-(4-methoxy-phenyl)-4H-[1,2,4]triazol-3-yl]-methanesulfonamide] | 290 | 180 | depression | depression
3 | COc1ccc(-n2c(-c3cc(C(C)C)c(O)cc3O)nnc2S(=O)(=O)CCCN(C)C)cc1 [SFN2-a08, 4-[5-(3-dimethylamino-propane-1-sulfonyl)-4-(4-methoxy-phenyl)-4H-[1,2,4]triazol-3-yl]-6-isopropyl-benzene-1,3-diol] | 700 | 69 | depression | depression
4 | CC(C)c1cc(-c2nnc(S(=O)(=O)CCCN(C)C)n2C(C)C)c(O)cc1O [SFN2-a21•TFA] | 1000 | 5200 |  | 
5 | CC(C)c1cc(-c2n[nH]c(=O)n2CCCN2CCCC2=O)c(O)cc1O [OH-a30, 5-(2,4-dihydroxy-5-isopropyl-phenyl)-4-[3-(2-oxo-pyrrolidin-1-yl)propyl]-2,4-dihydro-[1,2,4]triazol-3-one] | 140 | 1100 |  | 
6 | COc1cccc(-n2c(-c3cc(C(C)C)c(O)cc3O)n[nH]c2=O)c1 [OH-a09, 5-(2,4-dihydroxy-5-isopropyl-phenyl)-4-(3-methoxy-phenyl)-2,4-dihydro-[1,2,4]triazol-3-one] | 160 | 6.7 |  | 
7 | CC(C)c1cc(-c2n[nH]c(=O)n2CCCN2CCOCC2)c(O)cc1O [OH-a27, 5-(2,4-dihydroxy-5-isopropyl-phenyl)-4-[3-(molpholin-4-yl)-propyl]-2,4-dihydro-[1,2,4]triazol-3-one] | 240 | 220 |  | 
8 | CC(C)c1cc(-c2n[nH]c(=O)n2-c2ccc(C(=O)O)cc2)c(O)cc1O [OH-a12, 4-[3-(2,4-dihydroxy-5-isopropylphenyl)-5-oxo-1,5-dihydro-[1,2,4]triazol-4-yl]-benzoic acid] | 190 | > 20000 |  | 

More lines, main results first:

Row | IC50 (rHSP90) [nM] | IC50 [1] [nM] | SMILES | amount of HSP90 client protein Her2 [2] | amount of HSP90 client protein ERα [3]
9 | 240 | 36 | CC(C)c1cc(-c2n[nH]c(=S)n2-c2ccc(CN3CCOCC3)cc2)c(O)cc1O [SH-a02, 4-isopropyl-6-{5-mercapto-4-[4-(morpholin-4-ylmethyl)-phenyl]-4H-[1,2,4]triazol-3-yl}-benzene-1,3-diol] | depression | depression
10 | 120 | 150 | CC(C)c1cc(-c2nnc(S(C)(=O)=O)n2-c2ccc(CN3CCOCC3)cc2)c(O)cc1O [SFN-a02, 4-isopropyl-6-{5-methanesulfonyl-4-[4-(morpholin-4-ylmethyl)-phenyl]-4H-[1,2,4]triazol-3-yl}-benzene-1,3-diol] | depression | depression
11 | 2400 | > 20000 | CC(C)c1cc(-c2nnc(S(C)(=O)=O)n2CCCN2CCCC2=O)c(O)cc1O [SFN-a30] |  | 
12 | 250 | 480 | CC#CCc1cc(-c2n[nH]c(=S)n2-c2ccc(CN3CCOCC3)cc2)c(O)cc1O [SH-c02-TF, 4-(but-2-ynyl)-6-{5-mercapto-4-[4-morpholin-4-ylmethyl]-phenyl}-4H-[1,2,4]trioazol-3-yl]-benzene-1,3-diol trifluoroacetate] |  | 
13 | 310 | 550 | CC(C)c1cc(-c2n[nH]c(=S)n2CC2CCCO2)c(O)cc1O (centres unmarked) [SH-a31, 5-(2,4-dihydroxy-5-isopropylphenyl)-4-(tetrahydrofuran-2-ylmethyl)-2,4-dihydro-[1,2,4]triazol-3-thione] |  | 
14 | 720 | 720 | COc1ccc(-n2c(-c3cc(C(C)C)c(O)cc3O)nnc2S(=O)(=O)CC2CCCCO2)cc1 (centres unmarked) [SFN7-a08, 4-isopropyl-6-[4-(4-methoxy-phenyl)-5-(tetrahydro-pyran-2-ylmethanesulfonyl)-4H-[1,2,4]triazol-3-yl]-benzene-1,3-diol] |  | 
15 | 1000 | 890 | CC(C)c1cc(-c2n[nH]c(=S)n2C2CCN(Cc3ccccc3)CC2)c(O)cc1O [SH-a25•TFA] |  | 
16 | 150 | 150 | CC(C)c1cc(-c2n[nH]c(=S)n2-c2ccc(Br)cc2)c(O)cc1O [SH-a03, 4-[4-(4-bromo-phenyl)-5-mercapto-4H-[1,2,4]triazol-3-yl]-6-isopropyl-benzene-1,3-diol] |  | 
17 | 240 | 550 | COCCn1c(-c2cc(C(C)C)c(O)cc2O)n[nH]c1=S [SH-a32, 5-(2,4-dihydroxy-5-isopropyl-phenyl)-4-(2-methoxy-ethyl)-2,4-dihydro-[1,2,4]triazol-3-thione] |  | 
18 | 94 | 270 | COc1ccc(-n2c(-c3cc(C(C)C)c(O)cc3O)nnc2S(C)(=O)=O)cc1 [SFN-a08, 4-isopropyl-6-[5-methanesulfonyl-4-(4-methoxy-phenyl)-4H-[1,2,4]triazol-3-yl]-benzene-1,3-diol] | depression | depression
19 | 420 | 330 | CC(C)c1cc(-c2n[nH]c(=S)n2C2CCCCC2)c(O)cc1O [SH-a23, 5-(2,4-dihydroxy-5-isopropyl-phenyl)-4-cyclohexyl-2,4-dihydro-[1,2,4]triazol-3-thione] |  | 
